From patent publication US11260100B2, “Compositions targeting the interaction domain between p27Kip1 and Brk and methods of use thereof to inhibit p27 Y phosphorylation and cdk4 activity” (The Research Foundation for the State University of New York, priority 2014, dated 2022)

Columns and labels:
MCF7-ALT cells = test: Long-term proliferation arrest at IC100 (FIG. 15A); assay type: cell-based, human; settings: IC100 Palbociclib, doxycycline induced ALT, replenished every two days
Method: FIGS. 15A-15C: ALT and PD treatment increases senescence, a clinical goal. FIG. 15A: MCF7-ALT cells were treated with IC100 concentration of Palbociclib (PD) or doxycycline to induce ALT. Drugs were replenished every two days and proliferation was determined by cell counting as indicated. Proliferation rates were standardized to the rate of proliferation seen in DMSO treated cells (control). PD treated cells were arrested for 10 days, before escape (proliferation) was detected. ALT expressing cells were arrested for 18 days before escape (proliferation) was detected. ALT expressing and PD treated cells were arrested for 30 days, with no escape detected. […] Proliferation was assessed by counting. […] Viability was measured by trypan blue staining and the ALT expressing, PD treated cells that weren't growing were viable. […]
MCF7-ALT cells were treated with a IC100 concentration of Palbociclib (PD) or doxycycline to induce ALT. Drugs were replenished every two days and proliferation was determined by cell counting as indicated. […] PD treated cells were arrested for 10 days, before escape (proliferation) was detected. ALT expressing cells were arrested for 18 days before escape (proliferation) was detected. ALT expressing and PD treated cells were arrested for 30 days, with no escape detected. […] Proliferation was assessed by counting. […]

cdk2 = molecular target: T1, cdk2 (Homo sapiens, UniProt P24941); test: Immunoblot of cdk2T160 as measure of activated cdk2 (FIG. 10); assay type: cell-based; settings: MCF7, drugs at IC50
T1 construct: added to or expressed in MCF7 breast cancer cells on day 2 post plating; endogenous in cells; host or cells: MCF7 (ALT-MCF7 tetracycline-inducible line)
Method: FIG. 10: ALT BRK inhibits both CDK4 and CDK2. ALT, Palbociclib alone or in combination were added to or expressed in MCF7 breast cancer cells on day 2 post plating. Drugs were added at their IC50 concentration, based on previous results. ALT is expressed from an ALT-MCF7 tetracycline inducible cell line generated in the Blain lab. When tetracycline is added to the cell culture media, ALT is expressed in these cells. Vector: no tetracycline was added, so no ALT induction was detected. Drugs and media were replaced every two days. Cells were harvested every two days, lysed and used in immunoblot analysis. Actin: loading control. pRBser780 is a phospho-specific antibody that recognizes sites phosphorylated by cdk4, so is a measure of active cdk4. cdk2T160 recognizes a required phosphorylation event on residue […] and is a measure of activated cdk2.
(§1) Additional experiments were performed assessing activity of Brk in combination with Palbociclib. The data presented in FIGS. 9A and 9B reveal that Palbociclib and Brk inhibit proliferation for 2 days, and then resistance is observed (proliferation increases). Alt maintained arrest for roughly 10 days (50% inhibition of proliferation is detected). […] Alt-Brk/Palbociclib combination leads to a more durable cell cycle arrest. Mono therapy treated cells start to become resistant between day 8-10. […]

MCF7 breast cancer cells = test: Proliferation with ALT and Palbociclib at IC50 concentration (FIG. 9); assay type: cell-based, human; settings: drugs at IC50 concentration, replaced every two days
Method: FIGS. 9A-9B: AltBrk Synergizes with Palbociclib. ALT, Palbociclib, or Brk alone or in combination were added to or expressed in MCF7 breast cancer cells on day 2 post plating. Drugs were added at their IC50 concentration, based on previous results. ALT is expressed from an ALT-MCF7 tetracycline inducible cell line generated in the Blain lab. When tetracycline is added to the cell culture media, ALT is expressed in these cells. Vector: no tetracycline was added, so no ALT induction was detected. (FIG. 9A) Cells were harvested and counted every two days, as a measure of proliferation. Proliferation is plotted as a percentage relative to that seen in the DMSO treated control. Drugs and media were replaced every two days. (FIG. 9B) Viability was measured by trypan blue staining, and plotted relative to viability seen in the DMSO treated control.
as §1

MB 231 (TNBC) = test: Palbociclib sensitivity of breast cancer line; assay type: cell-based; settings: Homo sapiens; MB 231, moderate-responder

cdk2 activity (cdk2T160) (cdk2): does not inhibit cdk2 | IC50 (MB 231 (TNBC)): 400 nM
Compound: CC(=O)c1c(C)c2cnc(Nc3ccc(N4CCNCC4)cn3)nc2n(C2CCCC2)c1=O [PD0332991]
time arrested before escape (proliferation) (MCF7-ALT cells): 10 days | duration of proliferation inhibition / arrest (MCF7 breast cancer cells): 2 days
